For 23 molecules, IC50 results are on record in patent US20110065687A1, “HYDRAZIDE COMPOUNDS AND USES THEREOF” (priority 2007, published 2011).

What all share (type): cell-based
Experiment [1] has as its system C-myc transcription (cMYC RNA synthesis). Kind of experiment: QPCR control assay of C-myc transcription. Conditions: IC50 pertaining to cMYC RNA synthesis. As to the method:
A control assay that detected effects of the compounds on C-myc transcription also was conducted using a primer/probe set purchased from ABI (TaqMan Gene Expression Assay with assay ID: Hs99999003_m1). The following assay protocol was utilized:
(§1) Step 1. Reverse transcription of RNA to DNA
(§2) Fluorescence of digested label was detected and quantified. The effect of the compounds on rRNA synthesis were assessed in the assay, and provided in the table hereafter are IC50 values of selected compounds pertaining to rRNA synthesis and cMYC RNA synthesis.

The subject of experiment [2] is HCT-116 human colorectal carcinoma cells. The experiment in a line: Alamar Blue cell proliferation assay, HCT-116. The settings on record: 96 h, anti-proliferative effect, about four days with compound, HCT-116 cells, read-out: AB: HCT-116. As to the method:
(§3) A representative cell-proliferation assay protocol using Alamar Blue dye (stored at 4° C., use 20 ul per well) is described hereafter.
(§4) a. Split and trypsinize cells.
(§5) b. Count cells using hemocytometer.
(§6) c. Plate 4,000-5,000 cells per well in 100 μl of medium and seed into a 96-well plate according to the following plate layout. Add cell culture medium only to wells B10 to B12. Wells B1 to B9 have cells but no compound added.
(§7) d. Add 100 μl of 2× drug dilution to each well in a concentration shown in the plate layout above. At the same time, add 100 μl of media into the control wells (wells B10 to B12). Total volume is 200 μl /well.
(§8) e. Incubate four (4) days at 37° C., 5% CO2 in a humidified incubator.
(§9) f. Add 20 μl Alamar Blue reagent to each well.
(§10) g. Incubate for four (4) hours at 37° C., 5% CO2 in a humidified incubator.
(§11) h. Record fluorescence at an excitation wavelength of 544 nm and emission wavelength of 590 nm using a microplate reader.
(§12) In the assays, cells are cultured with a test compound for approximately four days, the dye then is added to the cells and fluorescence of […] dye is detected after approximately four hours. Different types of cells can be utilized in the assays (e.g., HCT-116 human colorectal carcinoma cells, PC-3 human prostatic cancer cells and MiaPaca human pancreatic carcinoma cells). Anti-proliferative effects of representative compounds are provided in the Table below (i.e., “AB: HCT-116” and “AB: MiaPaCa” columns).
Background: Alamar Blue is a resazurin reagent that responds to reducing activity.

Experiment [3] has as its system rRNA synthesis from 45S rDNA. Kind of experiment: QPCR assay of rRNA synthesis. The settings on record: IC50 pertaining to rRNA synthesis, PCR with 5' ETS probe. As for the experimental part:
A representative assay for determining whether a compound modulates rRNA production is set forth hereafter. Assays were conducted to determine the effects of compounds on rRNA synthesis from 45S rDNA. Synthesized rRNA was quantified by a polymerase chain reaction (PCR) assay. A primer/probe set was designed using Primer Express software and synthesized by Applied Biosystems. The 5′ ETS Probe utilized had the following sequence (at its 3′ end): 6FAM-TTG ATC CTG CCA GTA GC-MGBNFQ. The primer sequences were as follows:
as §1, §2

In experiment [4] the test system is MiaPaca human pancreatic carcinoma cells. Kind of experiment: Alamar Blue cell proliferation assay, MiaPaCa. Conditions: MIA PaCa-2, 96 h, anti-proliferative effect, about four days with compound, read-out: AB: MiaPaCa. As to the method: as §3, §4, §5, §6, §7, §8, §9, §10, §11, §12

Turning to `O=C(NN1CCCCC1)c1c(=O)c2ccc(N3CCOCC3)nc2n2c1sc1ccccc12` [Cmpd 8], the IC50 was 23600 nM in experiment [1], not below 50000 nM in experiment [2], 458 nM in experiment [3] and not below 50000 nM in experiment [4].
In the case of `Cn1c2ccccc2n2c3nc(N4CCOCC4)c(F)cc3c(=O)c(C(=O)NN3CCOCC3)c12` [Cmpd 21], the IC50 was 662 nM in experiment [2] and 1300 nM in experiment [4].
As for `CN1CCN(NC(=O)c2c(=O)c3cc(F)c(N4CCOCC4)nc3n3c2sc2ccccc23)CC1` [Cmpd 3], the IC50 is 6060 nM in experiment [1], 265 nM in experiment [2], 102 nM in experiment [3] and 225 nM in experiment [4].
In the case of `O=C(NNc1ccccn1)c1c(=O)c2cc(F)c(N3CCOCC3)nc2n2c1sc1ccccc12` [Cmpd 15], the IC50 in experiment [2] was 1310 nM; in experiment [3] it was 5550 nM; in experiment [4] it was 5360 nM.
The like results for `CN1CCN(NC(=O)c2c(=O)c3ccc(N4CCC(O)C4)nc3n3c2sc2ccccc23)CC1` (stereo not drawn) [Cmpd 13] were, in that order, 5880 nM, 7320 nM and 3310 nM.
As for `O=C(NN1CCCC1)c1c(=O)c2ccc(N3CCOCC3)nc2n2c1sc1ccccc12` [Cmpd 7], the figures for the IC50 in experiment [2], in experiment [3] and in experiment [4] were 653 nM, 714 nM and 955 nM, respectively.
On to `COC[C@H]1CCCN1NC(=O)c1c(=O)c2ccc(N3CCOCC3)nc2n2c1sc1ccccc12` [Cmpd 9], for which the IC50 in experiment [2] was 1170 nM; in experiment [3], 720 nM; in experiment [4], 596 nM.
Take `CN1CCN(NC(=O)c2c(=O)c3cc(F)c(NN4CCN(C)CC4)nc3n3c2sc2ccccc23)CC1` [Cmpd 5]: the IC50 in experiment [2] stood at 1750 nM; in experiment [3], 632 nM; in experiment [4], 486 nM.
On to `CN1CCN(NC(=O)c2c(=O)c3ccc(NCCF)nc3n3c2sc2ccccc23)CC1` [Cmpd 12], for which the IC50 in experiment [2] came out at 693 nM; in experiment [3], 1580 nM; in experiment [4] it was 1030 nM.
Regarding `O=C(NN1CCOCC1)c1c(=O)c2cc(F)c(N3CCOCC3)nc2n2c1sc1ccccc12` [Cmpd 14], the IC50 in experiment [2] was determined as 690 nM; in experiment [3], 2240 nM; in experiment [4] it was 8090 nM.
As to `CN(C)NC(=O)c1c(=O)c2ccc(N3CCOCC3)nc2n2c1sc1ccccc12` [Cmpd 10], the IC50 in experiment [1] was 8990 nM; in experiment [2], 523 nM; in experiment [3] it was 414 nM; in experiment [4], 444 nM.
As to `CN1CCN(NC(=O)c2c(=O)c3ccc(N4CCOCC4)nc3n3c2[nH]c2ccccc23)CC1` [Cmpd 24], in experiment [2], the IC50 worked out at 1420 nM.
Consider `CN1CCN(NC(=O)c2c(=O)c3ccc(N4CCOCC4)nc3n3c2sc2ccccc23)CC1` [Cmpd 1], for which the IC50 was 1190 nM in experiment [1], 96 nM in experiment [2] and 148 nM in experiment [3].
As for `CN1CCN(NC(=O)c2c(=O)c3ccc(N(C)Cc4cnccn4)nc3n3c2sc2ccccc23)CC1` [Cmpd 2], the IC50 in experiment [2] came to 249 nM; in experiment [3] it was 696 nM; in experiment [4] it was 1480 nM.
In the case of `CN1CCN(NC(=O)c2c(=O)c3ccc(-c4ccc(CO)cc4)nc3n3c2sc2ccccc23)CC1` [Cmpd 20], the results for the IC50 in experiment [2], in experiment [3] and in experiment [4] were 7140 nM, 9710 nM and not below 50000 nM, respectively.
With `O=C(Nn1cnnc1)c1c(=O)c2cc(F)c(N3CCOCC3)nc2n2c1sc1ccccc12` [Cmpd 16], the IC50 in experiment [1] worked out at 14000 nM; in experiment [2], 292 nM; in experiment [3], 350 nM; in experiment [4], 715 nM.
For `CN(C)NC(=O)c1c(=O)c2ccc(N3CCOCC3)nc2n2c1[nH]c1ccccc12` [Cmpd 23], the IC50 in experiment [2] turned out to be 1640 nM.
For the molecule `O=C(NNC1=NCCN1)c1c(=O)c2cc(F)c(N3CCOCC3)nc2n2c1sc1ccccc12` [Cmpd 17], the IC50 in experiment [1] came out at 1100 nM; in experiment [2], 1 nM; in experiment [3], 38 nM; in experiment [4] it was 3 nM.
For `CN1CCN(NC(=O)c2c(=O)c3ccc(N4CCCCC4)nc3n3c2sc2ccccc23)CC1` [Cmpd 11], the IC50 in experiment [2] amounted to 915 nM; in experiment [3], 3140 nM; in experiment [4], 740 nM.
For `CN(C)NC(=O)c1c(=O)c2cc(F)c(N3CCOCC3)nc2n2c3ccccc3n(C)c12` [Cmpd 22], the IC50 in experiment [2] is 1410 nM; in experiment [4] it was 2190 nM.
`O=C(NN1CCOCC1)c1c(=O)c2ccc(N3CCOCC3)nc2n2c1sc1ccccc12` [Cmpd 6]: the IC50 in experiment [2] worked out at 562 nM; in experiment [3] it was 702 nM; in experiment [4], 549 nM.
As to `COc1ccc(CNc2ccc3c(=O)c(C(=O)NN4CCN(C)CC4)c4sc5ccccc5n4c3n2)cc1` [Cmpd 18], the IC50 in experiment [2] amounted to 985 nM; in experiment [3], 1290 nM; in experiment [4], 893 nM.
With `CN1CCN(NC(=O)c2c(=O)c3cc(F)c(N(C)Cc4cnccn4)nc3n3c2sc2ccccc23)CC1` [Cmpd 4], the IC50 in experiment [1] amounted to 7010 nM; in experiment [2], 517 nM; in experiment [3] it was 291 nM; in experiment [4], 173 nM.
